In US20100092574A1, “SYNERGISTIC PEROXIDE BASED BIOCIDAL COMPOSITIONS” (priority 2008, published 2010):
Blank lines part the entries; values can stand above or below the compound they belong to.

Columns and labels:
[1] = Stability of active halogen species in the presence of residual H2O2; assay type: physicochemical
Method: The stability of nitrogen-bound active halogen species in the presence of residual H2O2 was investigated. Free and total chlorine concentrations were measured by standard DPD methodology and the total H2O2 concentration by acidic […] titration. The concentration of MCDMH is the concentration of the total active halogen less the concentration of free active halogen. The concentration of H2O2 is the total oxidant concentration less the MCDMH concentration. […] The indicated reaction is shown in Equation 6.
The effect of the addition of a molar equivalent of 5,5-dimethylhydantoin (DMH) to NaOCl solutions prior to combination with hydrogen peroxide was investigated. The concentration of MCDMH is the concentration of the total active halogen less the concentration of free active halogen. The concentration of H2O2 is the total oxidant concentration less the MCDMH concentration.

[2] = test system: microbial population of sulfite bleached pulp slurry (total aerobic counts); experiment: Biocidal performance in sulfite bleached pulp slurry, total aerobic counts (tryptone soy agar plating); assay type: cell-based; details: for amount alone required to achieve 1 g cfu/mL reduction of 4.2: single agent; for 3 h Reduction: 3 h contact; for 24 h Reduction: 24 h contact
Source text: (§1) The expression “1 g cfu/mL” denotes the common (decadic) logarithm of the number of colony-forming units per milliliter or, in connection with the term “reduction”, the common logarithm of the quotient of the number of colony-forming units per milliliter before treatment and the number of colony-forming units after treatment. Unless otherwise indicated all concentrations in percent or ppm are expressed on a weight basis.
Synergistic biocidal performance upon co-application of sulfite with hydrogen peroxide at elevated pH was investigated. The sulfite and peroxide concentrations indicated in Table 3 below were added to an aqueous solution made from: (a) deionized water, (b) NaHCO3 to achieve a carbonate buffer concentration of 200 ppm (as CaCO3 total alkalinity), (c) sulfite bleached pulp slurry to achieve a final consistency of 0.05%, carrying an associated minimal concentration of residual sulfite of 6 ppm, and (d) NaOH to achieve a pH of 9.0.
The microbial population was that provided by preparing the pulp slurry 24-48 h prior to testing and storing at room temperature, thus allowing microbial growth to a high test level. […] Populations reported are total aerobic counts using tryptone soy agar plating.
SI=(level of A)/(efficacious level of A)+(level of B)/(efficacious level of B) (3)
Synergy upon co-application of sulfite with hydrogen peroxide at higher concentrations of sulfite and hydrogen peroxide was investigated. The conditions were the same as in Example 3.

Pseudomonas aeruginosa = experiment: Bactericidal efficacy of sulfite and hydrogen peroxide solutions in the absence of pulp; assay type: cell-based; details: for 3 h Reduction: pH 7.0, 3 h at 37° C.; for reduction: 50 ppm hydrogen peroxide, 3 h
Source text: as §1
The bactericidal efficacy of solutions containing sulfite and hydrogen peroxide was further investigated in the absence of pulp. Efficacy was measured against Pseudomonas aeruginosa grown in nutrient in the presence of 83 and 830 ppm sulfite. The sulfite-containing P. aeruginosa inoculum was then diluted 1:99 with Butterfield's buffer at pH 7.0. The sulfite concentrations in Table 5 below are the those in the final dilution. The dilutions were then contacted with 50 ppm hydrogen peroxide for 3 h at 37° C.

[3] = Residual sulfite and hydrogen peroxide content after mixing (co-stability); assay type: physicochemical
Method: Aqueous solutions containing sodium sulfite and hydrogen peroxide were mixed at 21° C. to obtain a solution having a sulfite content (as SO3^2−) of 40 ppm, a hydrogen peroxide content of 20.0 ppm and a pH of 6.7. The temperature of the solution was maintained at 21° C. and the residual sulfite and peroxide content was determined at 15, 30 and 60 minutes after mixing. The procedure consisted of adding a known amount of 1-chloro-5,5-dimethylhydantoin (MCDMH) to the samples in excess of the estimated residual sulfite content. The remaining MCDMH concentration was then measured by standard DPD total halogen methodologies. As sulfite rapidly neutralizes MCDMH at all pHs the sulfite concentration is the concentration of MCDMH added less the concentration of MCDMH measured, see Equation 1 below.
[Sulfite]=[MCDMHadded]−[MCDMHmeasured] (1)
The H2O2 concentration was determined by recording the concentration of H2O2 measured using acidic thiosulfate titration with KI indicator (HACH HYP-1 hydrogen peroxide test kit—Hach Co., Loveland, Colo.). Since this titration is run at acidic pH, this method yields the concentration of H2O2 in excess of the sulfite concentration contained in the sample. As the sulfite concentration is known from the MCMDH analysis and Equation 1, the H2O2 concentration can be calculated using the following Equation 2:
[H2O2]=[H2O2 measured]+[Sulfitecalculated] (2)
The estimated error in the methodology is ±1 ppm
The procedure of Example 1 was repeated with the difference that the pH of the mixed solution was 9.0 and the residual concentrations were determined 5, 15, 30, 60, 120 and 1080 minutes after mixing.

[4] = 2.1 ppm H2O2 + 1.0 ppm DMH stabilized NaOCl, 1 min
[5] = 2.1 ppm H2O2 + 1.0 ppm DMH stabilized NaOCl, 5 min
[6] = 2.1 ppm H2O2 + 1.0 ppm DMH stabilized NaOCl, 15 min
[7] = 2.1 ppm H2O2 + 1.0 ppm DMH stabilized NaOCl, 60 min
[8] = 2.1 ppm H2O2 + 1.0 ppm NaOCl (as Cl2), 1 min
[9] = 2.1 ppm H2O2 + 1.0 ppm NaOCl (as Cl2), 5 min
[10] = 2.1 ppm H2O2 + 1.0 ppm NaOCl (as Cl2), 15 min
[11] = combination of 2.1 ppm H2O2 with 1 ppm NaOCl (as Cl2), immediate
[12] = Table 3 Test No. 2: sulfite 32 ppm, peroxide 0 ppm, pH 9.0
[13] = Table 3 Test No. 3: sulfite 128 ppm, peroxide 0 ppm, pH 9.0
[14] = Table 4 Test No. 2: sulfite 128 ppm, peroxide 0 ppm
[15] = Table 4 Test No. 3: sulfite 512 ppm, peroxide 0 ppm
[16] = pH 6.7, 21° C., start 40 ppm sulfite + 20.0 ppm H2O2, 15 min
[17] = pH 6.7, 21° C., start 40 ppm sulfite + 20.0 ppm H2O2, 30 min
[18] = pH 6.7, 21° C., start 40 ppm sulfite + 20.0 ppm H2O2, 60 min
[19] = pH 9.0, start 40 ppm sulfite + 20.0 ppm H2O2, 5 min
[20] = pH 9.0, start 40 ppm sulfite + 20.0 ppm H2O2, 15 min
[21] = pH 9.0, start 40 ppm sulfite + 20.0 ppm H2O2, 30 min
[22] = pH 9.0, start 40 ppm sulfite + 20.0 ppm H2O2, 60 min
[23] = pH 9.0, start 40 ppm sulfite + 20.0 ppm H2O2, 120 min
[24] = pH 9.0, start 40 ppm sulfite + 20.0 ppm H2O2, 1080 min
[25] = Example 3, hydrogen peroxide alone (40-160 ppm per Table 3)
[26] = Example 4, hydrogen peroxide alone at 120-160 ppm
[27] = Table 3 Test No. 4: sulfite 0 ppm, peroxide 40 ppm, pH 9.0
[28] = Table 3 Test No. 5: sulfite 0 ppm, peroxide 160 ppm, pH 9.0
[29] = Table 4 Test No. 4: sulfite 0 ppm, peroxide 120 ppm
[30] = Table 4 Test No. 5: sulfite 0 ppm, peroxide 150 ppm
[31] = Table 4 Test No. 6: sulfite 0 ppm, peroxide 160 ppm

Free active halogen DPD (as Cl2) [1, 4]: 0.0 ppm
Indicated Species DMH stabilized NaOCl (as Cl2) [1, 4]: 0.9 ppm
Total active halogen DPD (as Cl2) [1, 4]: 0.9 ppm
Free active halogen DPD (as Cl2) [1, 5]: 0.0 ppm
Indicated Species DMH stabilized NaOCl (as Cl2) [1, 5]: 1.0 ppm
Total active halogen DPD (as Cl2) [1, 5]: 1.0 ppm
Free active halogen DPD (as Cl2) [1, 6]: 0.0 ppm
Indicated Species DMH stabilized NaOCl (as Cl2) [1, 6]: 0.9 ppm
Total active halogen DPD (as Cl2) [1, 6]: 0.9 ppm
Free active halogen DPD (as Cl2) [1, 7]: 0.0 ppm
Indicated Species DMH stabilized NaOCl (as Cl2) [1, 7]: 0.9 ppm
Total active halogen DPD (as Cl2) [1, 7]: 0.9 ppm
Structure (SMILES): CC1(C)C(=O)NC(=O)N1Cl [DMH stabilized NaOCl, 1-chloro-5,5-dimethylhydantoin]

Free active halogen DPD (as Cl2) [1, 8]: 0.0 ppm
Indicated Species NaOCl (as Cl2) [1, 8]: 0.0 ppm
Total active halogen DPD (as Cl2) [1, 8]: 0.0 ppm
Indicated Species NaOCl (as Cl2) [1, 9]: 0.0 ppm
Indicated Species NaOCl (as Cl2) [1, 10]: 0.0 ppm
free chlorine after combination [1, 11]: no detectable free chlorine
Structure (SMILES): [Na+].[O-]Cl [NaOCl]

Structure (SMILES): O=S([O-])[O-].[Na+].[Na+] [Sulfite, sodium sulfite]
effect on bacterial populations ([2]; Example 3, sulfite alone at 32-128 ppm): no significant effect
amount alone required to achieve 1 g cfu/mL reduction of 4.2 ([2]; Example 4): > 512 ppm
effect on the microbial populations ([2]; Example 4, sulfite at 128-512 ppm): no significant effect
3 h Reduction [2, 12]: −0.40 lg cfu/mL
24 h Reduction [2, 12]: 0.11 lg cfu/mL
3 h Reduction [2, 13]: −0.50 lg cfu/mL
24 h Reduction [2, 13]: −0.45 lg cfu/mL
3 h Reduction [2, 14]: 0.32 lg cfu/mL
24 h Reduction [2, 14]: 0.11 lg cfu/mL
3 h Reduction [2, 15]: 0.08 lg cfu/mL
24 h Reduction [2, 15]: −0.45 lg cfu/mL
3 h Reduction (Pseudomonas aeruginosa; Table 5 Test No. 2: sulfite 8.3 ppm, peroxide 0 ppm): 0.1 lg cfu/mL
3 h Reduction (Pseudomonas aeruginosa; Table 5 Test No. 3: sulfite 0.83 ppm, peroxide 0 ppm): 0.0 lg cfu/mL
Sulfite (as H2O2) [3, 16]: 3.1 ppm
Sulfite (as SO3^2−) ([3]; pH 6.7, 21° C., start 40 ppm sulfite + 20.0 ppm H2O2, 15 min after mixing): 7.2 ppm
Sulfite (as H2O2) [3, 17]: 2.3 ppm
Sulfite (as SO3^2−) ([3]; pH 6.7, 21° C., start 40 ppm sulfite + 20.0 ppm H2O2, 30 min after mixing): 5.4 ppm
Sulfite (as H2O2) [3, 18]: 0.0 ppm
Sulfite (as SO3^2−) ([3]; pH 6.7, 21° C., start 40 ppm sulfite + 20.0 ppm H2O2, 60 min after mixing): 0.0 ppm
Sulfite (as H2O2) [3, 19]: 7.9 ppm
Sulfite (as SO3^2−) [3, 19]: 18.7 ppm
Sulfite (as H2O2) [3, 20]: 6.8 ppm
Sulfite (as SO3^2−) [3, 20]: 16.0 ppm
Sulfite (as H2O2) [3, 21]: 6.7 ppm
Sulfite (as SO3^2−) [3, 21]: 15.7 ppm
Sulfite (as H2O2) [3, 22]: 6.2 ppm
Sulfite (as SO3^2−) [3, 22]: 14.6 ppm
Sulfite (as H2O2) [3, 23]: 5.2 ppm
Sulfite (as SO3^2−) [3, 23]: 12.3 ppm
Sulfite (as H2O2) [3, 24]: 0.1 ppm
Sulfite (as SO3^2−) [3, 24]: 0.3 ppm

Indicated Species H2O2 [1, 4]: 2.1 ppm
Indicated Species H2O2 [1, 5]: 1.9 ppm
Indicated Species H2O2 [1, 7]: 2.3 ppm
Indicated Species H2O2 [1, 8]: 1.8 ppm
Indicated Species H2O2 [1, 9]: 1.8 ppm
Indicated Species H2O2 [1, 10]: 1.4 ppm
H2O2 residue [1, 11]: ~1.6 ppm
H2O2 [3, 16]: 6.1 ppm
H2O2 [3, 17]: 5.1 ppm
H2O2 [3, 18]: 2.4 ppm
H2O2 [3, 19]: 16.9 ppm
H2O2 [3, 20]: 14.8 ppm
H2O2 [3, 21]: 14.7 ppm
H2O2 [3, 22]: 15.2 ppm
H2O2 [3, 23]: 13.2 ppm
H2O2 [3, 24]: 8.1 ppm
Structure (SMILES): OO [hydrogen peroxide]
reduction in 3 h [2, 25]: 1.2-3.5 1 g cfu/mL
reduction in 24 h [2, 25]: 5.5 1 g cfu/mL
reduction in 3 h [2, 26]: 3.3-4.0 1 g cfu/mL
reduction in 24 h [2, 26]: 3.7-5.5 1 g cfu/mL
amount alone required to achieve 1 g cfu/mL reduction of 4.2 ([2]; Example 4): ≥ 150 ppm
3 h Reduction [2, 27]: 1.2 lg cfu/mL
24 h Reduction [2, 27]: 5.5 lg cfu/mL
3 h Reduction [2, 28]: 3.5 lg cfu/mL
24 h Reduction [2, 28]: 5.5 lg cfu/mL
3 h Reduction [2, 29]: 4.0 lg cfu/mL
24 h Reduction [2, 29]: 4.5 lg cfu/mL
3 h Reduction [2, 30]: 4.2 lg cfu/mL
24 h Reduction [2, 30]: 3.7 lg cfu/mL
3 h Reduction [2, 31]: 3.3 lg cfu/mL
24 h Reduction [2, 31]: 5.0 lg cfu/mL
reduction (Pseudomonas aeruginosa; P. aeruginosa grown up in 830 ppm sulfite diluted to 8.3 ppm during application): 1.5 1 g cfu/mL
reduction (Pseudomonas aeruginosa; P. aeruginosa grown up in the absence of sulfite): 0.9 1 g cfu/mL
3 h Reduction (Pseudomonas aeruginosa; Table 5 Test No. 4: sulfite 0 ppm, peroxide 50 ppm): 0.9 lg cfu/mL
